# According to ChEMBL document CHEMBL1201862, “PubChem BioAssay data set” (2004):
#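 Following 48 hours of exposure in 96-well plates, responses at five concentrations were used to interpolate endpoints linearly. GI50 is the concentration that inhibits growth by half.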 Active and inactive are the calls of the source. No stated cut-off is given here; in the data, active = GI50 up to about 1.1 µM and inactive = higher.
# Legend:
# Test in all cases: growth of human tumour cells (NCI), 48 h
# DMS-273 = test system: DMS-273
# M19-MEL = test system: M19-MEL
# KM-20L2 = test system: KM-20L2
# RXF 631 = test system: RXF 631
# DLD-1 = test system: DLD-1
# XF498 = test system: XF498
# HOP-18 = test system: HOP-18
# LXFL 529 = test system: LXFL 529
# SNB-78 = test system: SNB-78
Structure (SMILES),GI50 (DMS-273),GI50 (M19-MEL),GI50 (KM-20L2),GI50 (RXF 631),GI50 (DLD-1),GI50 (XF498),GI50 (HOP-18),GI50 (LXFL 529),GI50 (SNB-78)
Nc1c([N+](=O)[O-])nc(Cl)c2nncn12,16.5 µM (inactive),> 100 µM (inactive),> 87.1 µM (inactive),> 100 µM (inactive),> 58.9 µM (inactive),> 100 µM (inactive),> 100 µM (inactive),> 78.9 µM (inactive),> 100 µM (inactive)
CC(c1cccc2ccccc12)/[N+]([O-])=C/c1ccccc1 (stereo not given),> 100 µM (inactive),–,> 100 µM (inactive),> 100 µM (inactive),> 100 µM (inactive),> 100 µM (inactive),36.1 µM (inactive),> 100 µM (inactive),–
C[C@]12CCc3nn(-c4ccccc4)nc3C1CC[C@@H]1C2CC[C@]2(C)C(=O)CCC12 (stereo not given in full),> 100 µM (inactive),> 100 µM (inactive),> 100 µM (inactive),–,93.3 µM (inactive),–,> 100 µM (inactive),> 100 µM (inactive),> 100 µM (inactive)
CCOC(=O)/C(=C/c1ccc(C#N)cc1)N(CC)CC,–,> 100 µM (inactive),–,> 100 µM (inactive),> 100 µM (inactive),> 100 µM (inactive),63 µM (inactive),> 100 µM (inactive),> 100 µM (inactive)
COC(=O)/C=C/C1C(C(=O)OC)C2(C(=O)OC)CCC1(C(=O)OC)N2 (stereo not given),> 100 µM (inactive),> 100 µM (inactive),> 100 µM (inactive),> 100 µM (inactive),> 100 µM (inactive),> 100 µM (inactive),96.8 µM (inactive),> 100 µM (inactive),> 100 µM (inactive)
CC(C)=CCC/C(C)=C/CC/C(C)=C/C1CCC(=O)C1(C)C (stereo not given),–,19.2 µM (inactive),16.3 µM (inactive),44.6 µM (inactive),17.4 µM (inactive),18.2 µM (inactive),22.4 µM (inactive),17.3 µM (inactive),22.6 µM (inactive)
CN1COc2c(n(C)c(=O)[nH]c2=O)C1,45.7 µM (inactive),> 100 µM (inactive),> 100 µM (inactive),–,> 100 µM (inactive),> 100 µM (inactive),> 100 µM (inactive),> 100 µM (inactive),> 100 µM (inactive)
Clc1ccc(C2SCc3nc4ccccc4n32)cc1Cl (stereo not given),–,> 10 µM (inactive),–,–,12.6 µM (inactive),12.1 µM (inactive),< 0.01 µM (active),11.8 µM (inactive),12.3 µM (inactive)
CC(=O)N1CCC(=O)/C(=C/c2ccccc2)C1,33 µM (inactive),20.4 µM (inactive),27.4 µM (inactive),28.9 µM (inactive),24.1 µM (inactive),64 µM (inactive),23.2 µM (inactive),21.9 µM (inactive),38.5 µM (inactive)
O=C(/N=N/C(=O)OCc1ccccc1)OCc1ccccc1,91.6 µM (inactive),> 100 µM (inactive),> 100 µM (inactive),> 100 µM (inactive),–,> 100 µM (inactive),> 100 µM (inactive),68.2 µM (inactive),> 100 µM (inactive)
CCCCCCCCNC(=O)SCCCC,31.4 µM (inactive),40.5 µM (inactive),33.3 µM (inactive),39.1 µM (inactive),43.4 µM (inactive),13.8 µM (inactive),31 µM (inactive),38.5 µM (inactive),–
CCC(C(=O)c1ccccc1)C(CCCC(=O)Nc1c(C)cccc1C)N=O (stereo not given),> 100 µM (inactive),> 100 µM (inactive),> 100 µM (inactive),> 100 µM (inactive),> 100 µM (inactive),> 100 µM (inactive),> 100 µM (inactive),> 100 µM (inactive),> 100 µM (inactive)
O=c1[nH]c2c3ccccc3ccc2c2cc3c(cc12)OCO3,67.1 µM (inactive),> 100 µM (inactive),> 100 µM (inactive),> 100 µM (inactive),> 100 µM (inactive),84.1 µM (inactive),2 µM (inactive),79.4 µM (inactive),> 100 µM (inactive)
COC(=O)[C@@H]1Cc2c([nH]c3ccccc23)[C@H](c2ccccc2)N1,26.7 µM (inactive),41.7 µM (inactive),> 100 µM (inactive),–,35.2 µM (inactive),–,52.1 µM (inactive),54.5 µM (inactive),–
CSc1nnc(CCC(=O)Nc2c(C)cccc2C)o1,–,> 100 µM (inactive),> 100 µM (inactive),> 100 µM (inactive),> 100 µM (inactive),> 100 µM (inactive),> 100 µM (inactive),> 100 µM (inactive),> 100 µM (inactive)
C=C1C(=O)OC2C1C(OC(=O)/C(C)=C\C)CC1(CO1)C1C(O)C=C(C)C21O (stereo not given),6.46 µM (inactive),6.24 µM (inactive),3.19 µM (inactive),3.52 µM (inactive),2.33 µM (inactive),12.7 µM (inactive),10.9 µM (inactive),1.59 µM (inactive),9.53 µM (inactive)
Cc1cc(Cl)ccc1NC(=O)C(=O)C(C(=O)c1ccccc1)C1OC(=O)c2ccccc21 (stereo not given),> 100 µM (inactive),> 100 µM (inactive),> 100 µM (inactive),–,> 100 µM (inactive),> 100 µM (inactive),> 100 µM (inactive),> 100 µM (inactive),> 100 µM (inactive)
CC(C)C(=O)/C=C/c1ccccc1,65.2 µM (inactive),> 100 µM (inactive),36.1 µM (inactive),–,84.7 µM (inactive),> 100 µM (inactive),> 100 µM (inactive),> 100 µM (inactive),33.1 µM (inactive)
N#C/C(=C\c1ccc(O)cc1O)C(N)=O,> 100 µM (inactive),> 100 µM (inactive),28.2 µM (inactive),–,67.1 µM (inactive),34.2 µM (inactive),–,> 100 µM (inactive),> 100 µM (inactive)
